Measured values: the supplement of paper PMC10307832

Experiments:
Test in all cases: relative viability (nuclei count vs DMSO), 5 days (fraction); higher = more cells survive
BEN = test system: BEN
Method in brief: (§1)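 The day after seeding in 1536-well plates, lung cancer cell lines were treated by pin tool with a single drug, or with a fixed anchor-drug dose together with five library-drug doses (not always all listed) in √10 steps. After 5 days, a combined fix-and-stain solution (final 0.05% Triton X-100, 1% formaldehyde, 1 ug/ml Hoechst) was added. Nuclei counted on 4× images gave relative viability as treated counts over vehicle counts, reported as the median of duplicate plates.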

CAL-12T = test system: CAL-12T
Method in brief: as §1

COR-L23 = test system: COR-L23
Method in brief: as §1

HCC-366 = test system: HCC-366
Method in brief: as §1

LOU-NH91 = test system: LOU-NH91
Method in brief: as §1

LU99A = test system: LU99A
Method in brief: as §1

NCI-H1355 = test system: NCI-H1355
Method in brief: as §1

NCI-H1437 = test system: NCI-H1437
Method in brief: as §1

NCI-H1563 = test system: NCI-H1563
Method in brief: as §1

NCI-H1651 = test system: NCI-H1651
Method in brief: as §1

NCI-H1734 = test system: NCI-H1734
Method in brief: as §1

NCI-H1793 = test system: NCI-H1793
Method in brief: as §1

NCI-H1975 = test system: NCI-H1975
Method in brief: as §1

NCI-H2023 = test system: NCI-H2023
Method in brief: as §1

NCI-H2085 = test system: NCI-H2085
Method in brief: as §1

NCI-H358 = test system: NCI-H358
Method in brief: as §1

NCI-H441 = test system: NCI-H441
Method in brief: as §1

NCI-H460 = test system: NCI-H460
Method in brief: as §1

NCI-H838 = test system: NCI-H838
Method in brief: as §1

SK-LU-1 = test system: SK-LU-1
Method in brief: as §1

## Nc1ccn([C@@H]2O[C@H](CO)[C@@H](O)[C@@H]2O)c(=O)n1 [Cytarabine] + Cc1nc(NC(=O)N2CCC[C@H]2C(N)=O)sc1-c1ccnc(C(C)(C)C(F)(F)F)c1 [Alpelisib] (partner 2 µM)
BEN; first compound 0.005 µM
  relative viability: 0.832
BEN; first compound 0.01581 µM
  relative viability: 0.821
BEN; first compound 0.05 µM
  relative viability: 0.634
BEN; first compound 0.1581 µM
  relative viability: 0.418
BEN; first compound 0.5 µM
  relative viability: 0.353
CAL-12T; first compound 0.005 µM
  relative viability: 1.25
CAL-12T; first compound 0.01581 µM
  relative viability: 1.44
CAL-12T; first compound 0.05 µM
  relative viability: 1.1
CAL-12T; first compound 0.1581 µM
  relative viability: 0.514
CAL-12T; first compound 0.5 µM
  relative viability: 0.201
COR-L23; first compound 0.005 µM
  relative viability: 0.63
COR-L23; first compound 0.01581 µM
  relative viability: 0.472
COR-L23; first compound 0.05 µM
  relative viability: 0.458
COR-L23; first compound 0.1581 µM
  relative viability: 0.176
COR-L23; first compound 0.5 µM
  relative viability: 0.104
HCC-366; first compound 0.005 µM
  relative viability: 0.281
HCC-366; first compound 0.01581 µM
  relative viability: 0.228
HCC-366; first compound 0.05 µM
  relative viability: 0.104
HCC-366; first compound 0.1581 µM
  relative viability: 0.047
HCC-366; first compound 0.5 µM
  relative viability: 0.019
LOU-NH91; first compound 0.005 µM
  relative viability: 0.708
LOU-NH91; first compound 0.01581 µM
  relative viability: 0.695
LOU-NH91; first compound 0.05 µM
  relative viability: 0.603
LOU-NH91; first compound 0.1581 µM
  relative viability: 0.425
LOU-NH91; first compound 0.5 µM
  relative viability: 0.462
LU99A; first compound 0.005 µM
  relative viability: 0.519
LU99A; first compound 0.01581 µM
  relative viability: 0.565
LU99A; first compound 0.05 µM
  relative viability: 0.51
LU99A; first compound 0.1581 µM
  relative viability: 0.5
LU99A; first compound 0.5 µM
  relative viability: 0.406
NCI-H1355; first compound 0.005 µM
  relative viability: 0.825
NCI-H1355; first compound 0.01581 µM
  relative viability: 0.758
NCI-H1355; first compound 0.05 µM
  relative viability: 0.756
NCI-H1355; first compound 0.1581 µM
  relative viability: 0.363
NCI-H1355; first compound 0.5 µM
  relative viability: 0.264
NCI-H1437; first compound 0.005 µM
  relative viability: 0.666
NCI-H1437; first compound 0.01581 µM
  relative viability: 0.631
NCI-H1437; first compound 0.05 µM
  relative viability: 0.43
NCI-H1437; first compound 0.1581 µM
  relative viability: 0.237
NCI-H1437; first compound 0.5 µM
  relative viability: 0.151
NCI-H1563; first compound 0.005 µM
  relative viability: 0.938
NCI-H1563; first compound 0.01581 µM
  relative viability: 1.02
NCI-H1563; first compound 0.05 µM
  relative viability: 0.845
NCI-H1563; first compound 0.1581 µM
  relative viability: 0.888
NCI-H1563; first compound 0.5 µM
  relative viability: 0.663
NCI-H1651; first compound 0.005 µM
  relative viability: 0.817
NCI-H1651; first compound 0.01581 µM
  relative viability: 1.01
NCI-H1651; first compound 0.05 µM
  relative viability: 1.17
NCI-H1651; first compound 0.1581 µM
  relative viability: 0.401
NCI-H1651; first compound 0.5 µM
  relative viability: 0.261
NCI-H1734; first compound 0.005 µM
  relative viability: 0.39
NCI-H1734; first compound 0.01581 µM
  relative viability: 0.265
NCI-H1734; first compound 0.05 µM
  relative viability: 0.204
NCI-H1734; first compound 0.1581 µM
  relative viability: 0.139
NCI-H1793; first compound 0.005 µM
  relative viability: 0.573
NCI-H1793; first compound 0.01581 µM
  relative viability: 0.687
NCI-H1793; first compound 0.05 µM
  relative viability: 0.691
NCI-H1793; first compound 0.1581 µM
  relative viability: 0.389
NCI-H1793; first compound 0.5 µM
  relative viability: 0.251
NCI-H1975; first compound 0.005 µM
  relative viability: 0.442
NCI-H1975; first compound 0.01581 µM
  relative viability: 0.761
NCI-H1975; first compound 0.05 µM
  relative viability: 0.801
NCI-H1975; first compound 0.1581 µM
  relative viability: 0.418
NCI-H1975; first compound 0.5 µM
  relative viability: 0.313
NCI-H2023; first compound 0.005 µM
  relative viability: 0.489
NCI-H2023; first compound 0.01581 µM
  relative viability: 0.391
NCI-H2023; first compound 0.05 µM
  relative viability: 0.182
NCI-H2023; first compound 0.1581 µM
  relative viability: 0.117
NCI-H2023; first compound 0.5 µM
  relative viability: 0.0764
NCI-H2085; first compound 0.005 µM
  relative viability: 0.936
NCI-H2085; first compound 0.01581 µM
  relative viability: 0.827
NCI-H2085; first compound 0.05 µM
  relative viability: 0.869
NCI-H2085; first compound 0.1581 µM
  relative viability: 0.62
NCI-H2085; first compound 0.5 µM
  relative viability: 0.558
NCI-H358; first compound 0.005 µM
  relative viability: 0.573
NCI-H358; first compound 0.01581 µM
  relative viability: 0.516
NCI-H358; first compound 0.05 µM
  relative viability: 0.363
NCI-H358; first compound 0.1581 µM
  relative viability: 0.177
NCI-H358; first compound 0.5 µM
  relative viability: 0.148
NCI-H441; first compound 0.005 µM
  relative viability: 0.542
NCI-H441; first compound 0.01581 µM
  relative viability: 0.49
NCI-H441; first compound 0.05 µM
  relative viability: 0.391
NCI-H441; first compound 0.5 µM
  relative viability: 0.165
NCI-H460; first compound 0.005 µM
  relative viability: 0.31
NCI-H460; first compound 0.01581 µM
  relative viability: 0.252
NCI-H460; first compound 0.05 µM
  relative viability: 0.121
NCI-H460; first compound 0.1581 µM
  relative viability: 0.0355
NCI-H460; first compound 0.5 µM
  relative viability: 0.0251
NCI-H838; first compound 0.005 µM
  relative viability: 0.886
NCI-H838; first compound 0.01581 µM
  relative viability: 1.12
NCI-H838; first compound 0.05 µM
  relative viability: 0.909
NCI-H838; first compound 0.1581 µM
  relative viability: 0.452
NCI-H838; first compound 0.5 µM
  relative viability: 0.252
SK-LU-1; first compound 0.005 µM
  relative viability: 0.805
SK-LU-1; first compound 0.01581 µM
  relative viability: 0.826
SK-LU-1; first compound 0.05 µM
  relative viability: 0.62
SK-LU-1; first compound 0.1581 µM
  relative viability: 0.347
SK-LU-1; first compound 0.5 µM
  relative viability: 0.303
